{
  "source": "patent US4374284A",
  "about": "“Antiulcer, antiinflammatory, and antiallergic agent comprising as the main ingredient olean-12-ene-3β, 30-diol which is devoid of side effects of glycyrrhetinic acid and a new process for preparation of olean-12-ene-3β, 30-diol” (Minophagen Pharmaceutical Company, priority 1980, dated 1983)",
  "key": {"[1]": {"system": "writhing induced by acetic acid", "assay": "effect on writhing induced by acetic acid (analgesic action)", "type": "in vivo, male ddY mice", "conditions": "for number of writhing: counted for 10 minutes, control 24.9 ± 1.6, ** p < 0.01", "protocol": "(b) Effect on writhing induced by acetic acid (analgesic action)\nThe present compound olean-12-ene-3β, 30-diol (I) was administered orally to male ddY mice weighing 25-27 g. After 30 minutes, saline containing 0.7% acetic acid was administered intraperitoneally. The number of writhings of the mice was counted for 10 minutes from, 10 min. of the administration. Aspirin was used as the reference."}, "[2]": {"system": "stress-induced ulcer", "assay": "mice experiments on stress-induced ulcer (restraint plus water immersion)", "type": "in vivo, male ddY mice", "conditions": "for ulcer index: 200 mg/kg p.o.", "protocol": "(a) Mice Experiments on stress-induced ulcer Experimental procedures:\nMale ddY mice weighing about 20 g were made to fast for 18 hours. Water was given freely. Compounds to be tested were suspended in Tween 80 to prepare an aqueous suspension and administered orally. Immediately thereafter, the mice were subjected to restraint plus water immersion stress (25° C.) for 6 hours. Thereafter, the stomach was excised and fixed by formalin. The degree of ulcer was shown as a total of the length. The control group was given only the solvent."}, "[3]": {"biological_target": "T1, Δ^4 -5β-reductase for aldosterone in rat liver (Rattus norvegicus, UniProt P31210)", "T1 construct": "centrifuged again at 105,000 g to obtain Δ^4 -5β-reductase as the supernatant; from tissue; host or cells: rat liver, 105,000 g supernatant (cytosol)", "T1 sequence (P31210 1-326)": "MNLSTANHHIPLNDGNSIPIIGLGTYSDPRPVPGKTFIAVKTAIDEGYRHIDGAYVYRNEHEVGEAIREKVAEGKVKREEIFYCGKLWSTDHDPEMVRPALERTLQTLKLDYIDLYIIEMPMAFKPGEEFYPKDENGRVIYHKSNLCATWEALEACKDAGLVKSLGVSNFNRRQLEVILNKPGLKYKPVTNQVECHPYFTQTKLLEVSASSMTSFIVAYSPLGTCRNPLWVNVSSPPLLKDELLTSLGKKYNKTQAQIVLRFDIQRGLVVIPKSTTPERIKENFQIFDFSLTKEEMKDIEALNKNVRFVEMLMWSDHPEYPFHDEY", "assay": "inhibitory action on Δ^4-5β-reductase for aldosterone", "type": "biochemical", "conditions": "summary in words, liver reductase", "protocol": "(§1) In vitro experimental results regarding effects of glycyrrhetinic acid (II) and its modified compounds (III), (IV), and (I) on Δ^4 -5α and 5β-reductase for aldosterone in rat liver will be shown below.\n(§2) Assay for activity of Δ^4 -5α and 5β-reductase\n(§3) (1) Preparation of enzyme solutions\n(§4) Rat livers were perfused with saline and excised to prepare a 25% or 50% homogenate with a solution of 0.25 M sucrose and 1 mM EDTA. The homogenate was spun at 10,000 g for 20 minutes to separate supernatant, which was centrifuged again at 105,000 g to obtain Δ^4 -5β-reductase as the supernatant. The pellet was appropriately diluted with a solution of 0.25 M sucrose-1 mM EDTA to use as a 5α-reductase solution.\n(§5) (2) Conditions for incubation and assay\n(§6) 1 Aldosterone . . . 0.173 μM/0.05 ml ethanol solution\n(§7) 2 Glycyrrhetinic acid or its modified compounds . . . 0.173 μM/0.05 ml ethanol solution Control . . . 0.05 ml ethanol solution\n(§8) 5α-reductase solution 0.1 ml\n(§9) 5β-reductase solution 0.1 ml or 0.2 ml\n(§10) 5 Phosphate buffer (0.1 M, pH 7.2) 1 ml\n(§11) The components 1 , 2 , 3 , 4 , 5 , and 6 mentioned above were mixed to bring the total volume up to 2.5 ml. The mixture was incubated at 37° C. for 20 minutes. Before the incubation, however, 1 ml aliquot was removed from 2.5 ml of the mixture mentioned above and extracted with 5 ml of methylene dichloride. After the incubation, the remaining 1.5 ml was extracted with 5 ml of methylene dichloride. The optical density of the two methylene dichloride solutions prepared before and after the incubation was measured by a spectrophotometer (Hitachi) at 240 mμ. Inhibition % of Δ^4 -5α and 5β-reductase activity was calculated from the difference in the optical density."}, "[4]": {"system": "Δ^4 -5β-reductase for aldosterone in rat liver", "assay": "inhibitory action on Δ^4-5β-reductase for aldosterone", "type": "biochemical", "conditions": "conclusion from reductase experiments", "protocol": "as §1, §2, §3, §4, §5, §6, §7, §8, §9, §10, §11"}, "[5]": {"system": "ulcers induced by acetic acid", "assay": "experiments with rats on ulcers induced by acetic acid (chronic gastric ulcers)", "type": "in vivo", "conditions": "for ulcer value (major axis × minor axis): p.o., 14 days", "protocol": "(c) Experiments with rats on ulcers induced by acetic acid\nChronic gastric ulcers were induced by penetrating 100% acetic acid serosally into gastric wall for 60 sec. using a small cup (6 mm in diameter, 5 mm in height).\nFrom the next day, compounds to be tested were administered orally twice a day (morning and evening) for 14 days. Autopsies were carried out 15 days after the administrations."}, "[6]": {"system": "Arthus phenomenon (type III allergy)", "assay": "Arthus phenomenon test (type III allergy)", "type": "in vivo, female guinea pig", "protocol": "(b) Arthus phenomenon test (type III allergy)\nTo the back part of female guinea pig weighing 250-300 g, 10 mg/kg of egg albumin was administered subcutaneously. After 21 days, 2 mg/kg of egg albumin was administered intravenously, whereby death of the guinea pig due to anaphylactic shock was recognized to confirm establishment of sensitization. Thirty minutes after compounds to be tested were administered intraperitoneally, 0, 10, 100, 1000 μg/0.1 ml of egg albumin were each administered to the abdominal part which had been shaved."}},
  "note": "“Also recorded” adds a separate entry of the source.",
  "data": [
    {"smiles": "CC1(C)[C@@H](O)CC[C@]2(C)[C@H]3CC=C4[C@@H]5C[C@@](C)(CO)CC[C@]5(C)CC[C@@]4(C)[C@]3(C)CC[C@@H]12", "note": "[I, olean-12-ene-3β, 30-diol]", "values": [
      {"measurement": "number of writhing", "setting": "[1]; 100 mg/kg p.o.", "value": "15.5 ± 2.8"},
      {"measurement": "number of writhing", "setting": "[1]; 200 mg/kg p.o.", "value": "11.1 ± 1.6"},
      {"measurement": "number of writhing", "setting": "[1]; 400 mg/kg p.o.", "value": "8.0 ± 1.7"},
      {"measurement": "effect on writhing (in words)", "setting": "[1]; increasing doses", "value": "significantly decrease the number of writhing; also recorded: a little stronger than that of (II), but not so perfect as aspirin"},
      {"measurement": "inhibitory effect on stress-induced ulcer (in words)", "setting": "[2]; 200 mg/kg", "value": "showed a stronger inhibitory effect than glycyrrhetinic acid (II)"},
      {"measurement": "ulcer index", "setting": "[2]; 1st experiment, control 5.63 ± 0.55", "value": "2.94 ± 0.81"},
      {"measurement": "ulcer index", "setting": "[2]; 2nd experiment, control 4.13 ± 0.8", "value": "2.19 ± 0.6"},
      {"measurement": "ulcer index", "setting": "[2]; 3rd experiment, control 6.00 ± 0.87", "value": "3.88 ± 0.79"},
      {"measurement": "ulcer index", "setting": "[2]; 4th experiment, control 4.20 ± 0.70", "value": "1.89 ± 0.53"},
      {"measurement": "antiulcer effect compared with glycyrrhetinic acid (in words)", "setting": "[2]; all antiulcer experiments (stress, aspirin, acetic acid)", "value": "shows superior effects to glycyrrhetinic acid in all the experiments"},
      {"measurement": "effect upon Δ^4 -5α-5β-reductase (in words), 5β", "setting": "[3]", "value": "no inhibitory activity"},
      {"measurement": "aldosterone-like action (in words)", "setting": "[4]", "value": "entirely devoid of aldosterone-like action"},
      {"measurement": "ulcer value (major axis × minor axis)", "setting": "[5]; Experiment 1, 200 mg/kg (half dose twice/day), control 12.0 ± 2.3", "value": "10.1 ± 3.4"},
      {"measurement": "ulcer value (major axis × minor axis)", "setting": "[5]; Experiment 1, 400 mg/kg (half dose twice/day), control 12.0 ± 2.3", "value": "7.5 ± 0.7"},
      {"measurement": "ulcer value (major axis × minor axis)", "setting": "[5]; Experiment 2, 200 mg/kg (half dose twice/day), control 8.9 ± 1.7", "value": "6.7 ± 2.2"},
      {"measurement": "ulcer value (major axis × minor axis)", "setting": "[5]; Experiment 2, 400 mg/kg (half dose twice/day), control 8.9 ± 1.7", "value": "5.2 ± 1.2"},
      {"measurement": "ulcer value (major axis × minor axis)", "setting": "[5]; Total, 200 mg/kg (half dose twice/day), control 10.4 ± 1.4", "value": "8.4 ± 2.0"},
      {"measurement": "ulcer value (major axis × minor axis)", "setting": "[5]; Total, 400 mg/kg (half dose twice/day), control 10.4 ± 1.4, * p < 0.05", "value": "6.2 ± 0.8"},
      {"measurement": "inhibitory effect on acetic acid ulcer (in words)", "setting": "[5]; dose of 200 mg", "value": "showed an inhibitory effect to some extent"},
      {"measurement": "healing rate", "setting": "[5]; dose of 400 mg", "value": "more than 40%"},
      {"measurement": "inhibitory effect on acetic acid ulcer (in words)", "setting": "[5]; dose of 400 mg", "value": "clearly showed inhibitory effects"},
      {"measurement": "area", "setting": "[6]; egg albumin 10 μg/0.1 ml, 100 mg/kg intraperitoneally, control 0", "value": 0, "unit": "mm^2"},
      {"measurement": "area", "setting": "[6]; egg albumin 10 μg/0.1 ml, 200 mg/kg intraperitoneally, control 0", "value": 0, "unit": "mm^2"},
      {"measurement": "area", "setting": "[6]; egg albumin 100 μg/0.1 ml, 100 mg/kg intraperitoneally, control 110 ± 67", "value": "98 ± 98", "unit": "mm^2"},
      {"measurement": "area", "setting": "[6]; egg albumin 100 μg/0.1 ml, 200 mg/kg intraperitoneally, control 110 ± 67", "value": "30 ± 30", "unit": "mm^2"},
      {"measurement": "area", "setting": "[6]; egg albumin 1000 μg/0.1 ml, 100 mg/kg intraperitoneally, control 409 ± 130", "value": "334 ± 174", "unit": "mm^2"},
      {"measurement": "area", "setting": "[6]; egg albumin 1000 μg/0.1 ml, 200 mg/kg intraperitoneally, control 409 ± 130", "value": "76 ± 62", "unit": "mm^2"}
    ]}
  ]
}
